From paper PMC9653409, “Generative deep learning enables the discovery of a potent and selective RIPK1 inhibitor” (Nature Communications, 2022)
“And” between values parts separate entries of the source, which are not always exact repeats. Equal entries are not always repeated.

How the values were obtained:
[1] = system: TNFα-induced SIRS; test: TNFα-induced SIRS mouse model: body temperature loss; format: in vivo, C57BL/6 female mice; details: for ΔTemperature Average: group average
Procedure: The body temperatures of the mice were continuously monitored until 6 h after TNFα administration. At 6 h after TNFα injection, four mice in each group were killed at random, and the serums, heart, liver, spleen, lung, and kidney tissues were collected for analysis.

[2] = system: U937 cells; test: TSZ-induced U937 cell necroptosis model (CCK8); format: cell-based; details: Homo sapiens, U-937
Procedure: (§1) Cell necroptosis protection assays were performed in 96-well cell culture plates. Cells were plated in each well and cultured at 37 °C overnight. […] The cell survival rate was determined using a CCK8 cell viability assay kit and CLARIOstar (v5.61). […] All experiments were performed at least two times, and each EC50 value was expressed as mean ± standard deviation (SD).

[3] = target: MLK3 (Homo sapiens, UniProt Q16584); test: Kinase assay (Eurofins); format: biochemical
Procedure: (§2) In vitro kinase activity assays were conducted through the Kinase Profiling Services provided by Eurofins (Eurofins, France). The protocol for the RIPK1 assay is briefly described as follows (Protocols for other kinases are very similar and can be found in http://www.eurofins.com/pharmadiscovery). RIPK1 kinase was incubated with the test compound in assay buffer containing 8 mM MOPS (pH 7.0), 0.2 mM EDTA, 250 μM […], 10 mM magnesium acetate, and 10 μM [γ-33P]-ATP for 15 min at room temperature. The reaction was initiated by the addition of the Mg/ATP mixture. After incubation for 40 min at room temperature, and the reaction was stopped by the addition of 3% phosphoric acid. A 10 μL portion of the reaction mixture was then spotted onto a P30 filter mat and washed four times for 4 min in 0.425% phosphoric acid and once in methanol prior to drying and scintillation counting.

[4] = target: RIPK2 (Homo sapiens, UniProt O43353); test: Kinase assay (Eurofins); format: biochemical
Procedure: as §2

[5] = target: MLK2 (Homo sapiens, UniProt Q02779); test: Kinase assay (Eurofins); format: biochemical
Procedure: as §2

[6] = target: MLK1 (Homo sapiens, UniProt P80192); test: Kinase assay (Eurofins); format: biochemical
Procedure: as §2

[7] = system: RIPK1 knockout HT29 cells; test: TSZ treatment of RIPK1 knockout HT29 cells (CCK8); format: cell-based; details: Homo sapiens, HT-29, read-out: Cell Viability (%) Average
Procedure: as §1
The lentiCRISPRv2 vector targeting RIPK1 (sgRNA, 5’- […]-3’) was constructed by the Azenta company. HEK 293 T cells were transfected with lentiCRISPRv2 targeting RIPK1 and empty vector using Hieff Trans^TM Liposomal Transfection Reagent (Yeasen), respectively. […] The concentrated viruses were added to HT29 cells along with 8 μg/mL of polybrene (Yeasen) to enhance transfection efficiency. The infection assay was repeated in the next day under the same conditions. Finally, HT29 cells were screened with 3 μg/mL puromycin. Western blot analysis was used to confirm the RIPK1 deletion.

[8] = system: IL-6; test: DSS-induced IBD mouse model: IL-6 in cultured colon supernatant (ELISA); format: in vivo, C57BL/6 female mice
Procedure: (§3) DSS (3% w/v) was administered in drinking water ad libitum for 7 d (from day 0 to day 7). DSS solution was replaced three times on day 2, day 4, and day 6. […] Three mice in each group were killed at random on day 7, and distal colon tissues were collected for analysis. The mice weight and survival rate were recorded daily.
(§4) In the TNFα-induced SIRS model, at 6 h after TNFα injection, four mice in each group were killed at random, and the serums were collected, the serum concentrations of IL-1β and IL-6 were measured using ELISA kits (Neobioscience Technology) according to manufacturer’s instructions. […] The supernatant was collected by sequential centrifugation at 500 × g for 10 min and 3000 × g for 10 min. The concentrations of cytokines TNFα, IL-6, and IL-1β were measured using ELISA kits (Neobioscience Technology).

[9] = system: DSS-induced IBD; test: DSS-induced IBD mouse model: body weight; format: in vivo, C57BL/6 female mice; details: for Body Weight (%): Figure 9a
Procedure: as §3

[10] = system: IL-1β; test: DSS-induced IBD mouse model: IL-1β in cultured colon supernatant (ELISA); format: in vivo, C57BL/6 female mice
Procedure: as §3, §4

[11] = target: RIPK3 (Homo sapiens, UniProt Q9Y572); test: Kinase IC50 assay (Eurofins); format: biochemical
Procedure: as §2

[12] = target: RIPK4 (Homo sapiens, UniProt P57078); test: Kinase IC50 assay (Eurofins); format: biochemical
Procedure: as §2

[13] = 0 h after mTNFα, individual mice

MLK3, sequence (Q16584 whole entry): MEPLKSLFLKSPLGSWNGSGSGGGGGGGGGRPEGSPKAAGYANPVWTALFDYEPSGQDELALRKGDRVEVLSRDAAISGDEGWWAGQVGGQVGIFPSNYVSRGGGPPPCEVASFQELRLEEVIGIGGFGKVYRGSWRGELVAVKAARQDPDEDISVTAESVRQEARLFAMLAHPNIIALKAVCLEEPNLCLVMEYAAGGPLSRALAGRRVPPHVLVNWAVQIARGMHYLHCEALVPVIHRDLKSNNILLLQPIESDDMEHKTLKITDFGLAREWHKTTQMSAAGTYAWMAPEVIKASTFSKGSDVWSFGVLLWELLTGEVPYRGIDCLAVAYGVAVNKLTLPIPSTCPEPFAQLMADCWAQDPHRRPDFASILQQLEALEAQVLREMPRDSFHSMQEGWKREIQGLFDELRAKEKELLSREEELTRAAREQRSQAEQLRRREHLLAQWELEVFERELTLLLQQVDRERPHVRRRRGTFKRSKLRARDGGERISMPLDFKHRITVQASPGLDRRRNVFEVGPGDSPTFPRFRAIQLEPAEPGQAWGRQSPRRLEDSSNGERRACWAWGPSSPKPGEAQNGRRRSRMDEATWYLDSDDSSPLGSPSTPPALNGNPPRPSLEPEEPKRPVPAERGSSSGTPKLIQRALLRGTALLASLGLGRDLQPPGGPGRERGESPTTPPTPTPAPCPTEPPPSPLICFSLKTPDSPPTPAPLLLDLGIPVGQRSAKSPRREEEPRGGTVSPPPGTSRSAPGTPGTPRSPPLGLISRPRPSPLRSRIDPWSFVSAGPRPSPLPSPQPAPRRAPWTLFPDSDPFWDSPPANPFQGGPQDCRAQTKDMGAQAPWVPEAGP
MLK2, sequence (Q02779 whole entry): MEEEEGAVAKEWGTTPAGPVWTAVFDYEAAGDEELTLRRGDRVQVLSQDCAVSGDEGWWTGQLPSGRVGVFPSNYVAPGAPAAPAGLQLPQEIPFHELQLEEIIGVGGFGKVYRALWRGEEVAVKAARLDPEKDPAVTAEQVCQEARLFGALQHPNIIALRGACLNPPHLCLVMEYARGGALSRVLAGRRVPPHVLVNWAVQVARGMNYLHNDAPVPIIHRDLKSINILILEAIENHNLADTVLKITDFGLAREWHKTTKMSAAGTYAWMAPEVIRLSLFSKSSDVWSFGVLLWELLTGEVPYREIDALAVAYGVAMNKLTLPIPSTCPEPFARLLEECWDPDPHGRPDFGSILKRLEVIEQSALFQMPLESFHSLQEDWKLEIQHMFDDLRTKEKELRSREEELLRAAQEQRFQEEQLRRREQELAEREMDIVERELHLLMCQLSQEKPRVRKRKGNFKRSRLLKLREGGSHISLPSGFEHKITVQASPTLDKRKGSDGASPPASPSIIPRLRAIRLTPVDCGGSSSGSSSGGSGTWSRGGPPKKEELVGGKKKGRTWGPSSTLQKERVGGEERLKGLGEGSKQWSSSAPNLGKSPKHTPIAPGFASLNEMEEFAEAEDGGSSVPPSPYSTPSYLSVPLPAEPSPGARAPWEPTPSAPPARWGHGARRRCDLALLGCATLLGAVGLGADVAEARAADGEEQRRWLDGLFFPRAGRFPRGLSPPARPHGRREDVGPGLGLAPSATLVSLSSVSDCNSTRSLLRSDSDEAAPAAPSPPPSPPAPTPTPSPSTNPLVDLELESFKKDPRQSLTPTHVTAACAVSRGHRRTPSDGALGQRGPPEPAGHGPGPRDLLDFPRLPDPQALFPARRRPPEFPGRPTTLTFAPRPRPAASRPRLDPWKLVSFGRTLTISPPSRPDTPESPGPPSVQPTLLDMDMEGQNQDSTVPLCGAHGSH
RIPK2, sequence (O43353 whole entry): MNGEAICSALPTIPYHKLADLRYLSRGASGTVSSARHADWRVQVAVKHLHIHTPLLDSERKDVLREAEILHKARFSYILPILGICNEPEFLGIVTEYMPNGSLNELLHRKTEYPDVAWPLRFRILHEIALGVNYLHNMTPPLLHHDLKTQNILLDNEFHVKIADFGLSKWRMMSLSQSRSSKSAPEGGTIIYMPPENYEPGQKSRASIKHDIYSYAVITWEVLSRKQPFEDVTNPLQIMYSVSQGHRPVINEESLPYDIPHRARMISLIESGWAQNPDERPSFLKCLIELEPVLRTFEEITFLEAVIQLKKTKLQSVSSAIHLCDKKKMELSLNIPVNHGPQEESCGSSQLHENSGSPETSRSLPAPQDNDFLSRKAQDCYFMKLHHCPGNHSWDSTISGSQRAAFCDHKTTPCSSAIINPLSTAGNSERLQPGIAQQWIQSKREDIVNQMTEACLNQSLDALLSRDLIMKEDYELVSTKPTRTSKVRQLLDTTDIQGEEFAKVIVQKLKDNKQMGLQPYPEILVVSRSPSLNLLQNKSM
MLK1, sequence (P80192 whole entry): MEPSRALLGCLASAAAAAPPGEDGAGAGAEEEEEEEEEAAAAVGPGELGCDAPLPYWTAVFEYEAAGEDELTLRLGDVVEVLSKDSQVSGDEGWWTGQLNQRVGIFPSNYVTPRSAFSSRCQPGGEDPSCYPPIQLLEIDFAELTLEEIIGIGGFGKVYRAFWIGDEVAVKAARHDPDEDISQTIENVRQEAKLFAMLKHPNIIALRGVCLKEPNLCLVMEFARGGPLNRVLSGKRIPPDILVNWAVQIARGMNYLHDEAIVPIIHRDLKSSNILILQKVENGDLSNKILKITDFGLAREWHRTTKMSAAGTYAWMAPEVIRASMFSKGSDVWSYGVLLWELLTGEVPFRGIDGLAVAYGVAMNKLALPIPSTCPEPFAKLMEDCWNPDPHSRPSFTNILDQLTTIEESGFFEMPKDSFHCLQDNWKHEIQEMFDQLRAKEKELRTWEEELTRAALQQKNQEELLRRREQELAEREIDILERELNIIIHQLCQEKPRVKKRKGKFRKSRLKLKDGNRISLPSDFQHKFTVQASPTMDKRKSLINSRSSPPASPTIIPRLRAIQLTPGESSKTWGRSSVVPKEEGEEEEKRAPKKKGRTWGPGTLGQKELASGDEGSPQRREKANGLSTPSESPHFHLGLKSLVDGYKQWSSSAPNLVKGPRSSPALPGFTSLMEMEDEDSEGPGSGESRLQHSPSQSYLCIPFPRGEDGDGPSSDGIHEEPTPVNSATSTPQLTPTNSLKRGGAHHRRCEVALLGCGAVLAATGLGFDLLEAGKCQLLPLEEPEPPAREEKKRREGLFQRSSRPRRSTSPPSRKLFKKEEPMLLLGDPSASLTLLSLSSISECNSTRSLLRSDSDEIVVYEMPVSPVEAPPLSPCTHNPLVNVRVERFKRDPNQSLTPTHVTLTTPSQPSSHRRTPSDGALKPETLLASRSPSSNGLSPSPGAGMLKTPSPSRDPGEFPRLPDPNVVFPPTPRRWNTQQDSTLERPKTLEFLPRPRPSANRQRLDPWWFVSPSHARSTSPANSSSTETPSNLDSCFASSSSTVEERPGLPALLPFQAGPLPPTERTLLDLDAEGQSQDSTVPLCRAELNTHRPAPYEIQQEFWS
RIPK3, sequence (Q9Y572 whole entry): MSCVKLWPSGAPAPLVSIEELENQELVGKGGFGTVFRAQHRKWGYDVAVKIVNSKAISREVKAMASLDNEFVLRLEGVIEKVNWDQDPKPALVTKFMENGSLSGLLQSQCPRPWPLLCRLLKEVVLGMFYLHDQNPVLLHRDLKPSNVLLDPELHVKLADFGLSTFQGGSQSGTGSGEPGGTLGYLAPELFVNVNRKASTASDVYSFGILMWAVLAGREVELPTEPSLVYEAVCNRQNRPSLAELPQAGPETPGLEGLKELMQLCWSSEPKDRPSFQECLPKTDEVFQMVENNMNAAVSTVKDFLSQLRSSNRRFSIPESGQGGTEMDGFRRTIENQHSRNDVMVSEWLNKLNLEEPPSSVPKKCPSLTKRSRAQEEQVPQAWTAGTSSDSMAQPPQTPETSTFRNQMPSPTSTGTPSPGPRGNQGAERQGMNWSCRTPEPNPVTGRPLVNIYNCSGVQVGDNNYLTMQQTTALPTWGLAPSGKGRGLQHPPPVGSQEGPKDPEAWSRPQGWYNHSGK
RIPK4, sequence (P57078 whole entry): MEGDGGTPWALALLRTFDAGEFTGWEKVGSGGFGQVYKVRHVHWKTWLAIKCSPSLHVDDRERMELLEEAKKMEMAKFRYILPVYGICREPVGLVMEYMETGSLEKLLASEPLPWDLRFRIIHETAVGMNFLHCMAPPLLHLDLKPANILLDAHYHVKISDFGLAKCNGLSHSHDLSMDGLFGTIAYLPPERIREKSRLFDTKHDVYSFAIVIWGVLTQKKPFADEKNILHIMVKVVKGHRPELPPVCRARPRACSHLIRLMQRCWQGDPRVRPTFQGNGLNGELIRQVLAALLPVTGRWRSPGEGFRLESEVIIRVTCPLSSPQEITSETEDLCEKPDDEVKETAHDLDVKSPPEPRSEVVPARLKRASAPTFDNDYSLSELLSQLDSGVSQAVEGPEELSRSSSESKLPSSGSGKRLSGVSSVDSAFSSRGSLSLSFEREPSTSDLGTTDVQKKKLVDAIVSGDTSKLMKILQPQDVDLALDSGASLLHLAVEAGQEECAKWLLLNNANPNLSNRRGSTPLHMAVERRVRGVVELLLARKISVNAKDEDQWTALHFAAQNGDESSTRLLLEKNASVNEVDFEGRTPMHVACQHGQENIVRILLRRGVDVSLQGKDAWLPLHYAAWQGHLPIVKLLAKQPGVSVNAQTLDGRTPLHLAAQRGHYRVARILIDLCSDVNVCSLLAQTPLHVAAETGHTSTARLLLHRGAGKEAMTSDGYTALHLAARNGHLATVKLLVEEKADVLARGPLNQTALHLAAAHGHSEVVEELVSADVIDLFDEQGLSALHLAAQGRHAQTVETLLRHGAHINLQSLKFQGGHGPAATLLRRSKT

CC(C)C(=O)Nc1nc2cc(-c3ccc4c(c3)c(C(=O)NC(C)c3ccccc3)cn4C)ccn2n1 (centres unmarked) [RI-962]
ΔTemperature Average ([1]; 0 h after mTNFα): 0 °C
Temperature [1, 13]: 36.3 °C (4×) and 36.5 °C (3×) and 36.2 °C (5×) and 36.6 °C (2×)
ΔTemperature [1, 13]: 0 °C
TNFα-induced temperature loss ([1]; 40 mg/kg i.p.): remarkably reduced
ΔTemperature Average ([1]; 1 h after mTNFα): -0.06429 °C
Temperature ([1]; 1 h after mTNFα, individual mice): 36.3 °C (5×) and 36.2 °C (5×) and 36.1 °C and 36.5 °C (2×) and 36.4 °C
ΔTemperature Average ([1]; 2 h after mTNFα): 0.05 °C
Temperature ([1]; 2 h after mTNFα, individual mice): 36.3 °C (7×) and 36.4 °C and 36.5 °C (5×) and 36.6 °C
ΔTemperature Average ([1]; 3 h after mTNFα): 0.01429 °C
Temperature ([1]; 3 h after mTNFα, individual mice): 36.3 °C (6×) and 36.4 °C (4×) and 36.5 °C (3×) and 36.2 °C
ΔTemperature Average ([1]; 4 h after mTNFα): 0.007143 °C
Temperature ([1]; 4 h after mTNFα, individual mice): 36.2 °C (2×) and 36.5 °C (4×) and 36.4 °C (2×) and 36.3 °C (6×)
ΔTemperature Average ([1]; 5 h after mTNFα): -0.02143 °C
Temperature ([1]; 5 h after mTNFα, individual mice): 36.3 °C (7×) and 36.4 °C (3×) and 36.1 °C and 36.5 °C (2×) and 36.2 °C
ΔTemperature Average ([1]; 6 h after mTNFα): -0.1571 °C
Temperature ([1]; 6 h after mTNFα, individual mice): 36.3 °C (8×) and 36.4 °C and 35.9 °C (3×) and 36 °C and 36.2 °C
viability at 56 pM ([2]; 0.000056 μM): 1.42%
viability at 0.000169 µM ([2]; 0.000169 μM): 0.727%
viability at 0.000508 µM ([2]; 0.000508 μM): 0.579%
viability at 0.001524 µM ([2]; 0.001524 μM): 2.66%
viability at 0.004572 µM ([2]; 0.004572 μM): 8.5%
viability at 0.013717 µM ([2]; 0.013717 μM): 37.9%
viability at 0.041152 µM ([2]; 0.041152 μM): 78%
viability at 0.123457 µM ([2]; 0.123457 μM): 84.5%
viability at 0.37037 µM ([2]; 0.370370 μM): 96.7%
viability at 1.11111 µM ([2]; 1.111111 μM): 96.2%
viability at 3.33333 µM ([2]; 3.333333 μM): 90.4%
EC50 ([2]; U937 treated with TSZ, 24 h): 0.0178 µM
folds less potent against MLK3 than against RIPK1 [3]: 107 folds
activity at 10 µM ([3]; 10 µM, read-out: Activity (%), MLK3(h)): 20%
IC50 ([3]; MLK3): 3.75 µM
activity at 10 µM ([4]; 10 µM, read-out: Activity (%), RIPK2(h)): 79%
IC50 ([4]; RIPK2): > 10 µM
activity at 10 µM ([5]; 10 µM, read-out: Activity (%), MLK2(h)): 29%
IC50 ([5]; MLK2): > 10 µM
activity at 10 µM ([6]; 10 µM, read-out: Activity (%), MLK1(h)): 36%
IC50 ([6]; MLK1): > 10 µM
viability at 0.000169 µM ([7]; 0.000169 μM + TSZ): 89.4%
viability at 0.000508 µM ([7]; 0.000508 μM + TSZ): 103%
viability at 0.001524 µM ([7]; 0.001524 μM + TSZ): 87.5%
viability at 0.004572 µM ([7]; 0.004572 μM + TSZ): 87.3%
viability at 0.013717 µM ([7]; 0.013717 μM + TSZ): 90.8%
viability at 0.041152 µM ([7]; 0.041152 μM + TSZ): 90.1%
viability at 0.123457 µM ([7]; 0.123457 μM + TSZ): 94.4%
viability at 0.37037 µM ([7]; 0.370370 μM + TSZ): 104%
viability at 1.11111 µM ([7]; 1.111111 μM + TSZ): 97.9%
content of IL-6 in cultured colonic tissue supernatants ([8]; 40 mg/kg i.p., day 7): substantially reduced
IL-6 ([8]; Figure 9i, individual replicates 1-3): 994.1 pg/mL and 876.1 pg/mL and 967.8 pg/mL
loss of body weight ([9]; 40 mg/kg i.p. once a day): strongly ameliorated this loss of body weight
Body Weight (%) ([9]; day 0): 100%
Body Weight (%) ([9]; day 1): 97.11%
Body Weight (%) ([9]; day 2): 98.41%
Body Weight (%) ([9]; day 3): 102.3%
Body Weight (%) ([9]; day 4): 103.1%
Body Weight (%) ([9]; day 5): 104.6%
Body Weight (%) ([9]; day 6): 103.5%
Body Weight (%) ([9]; day 7): 103.5%
Body Weight (%) ([9]; day 8): 99.79%
Body Weight (%) ([9]; day 9): 98.12%
Body Weight (%) ([9]; day 10): 98.15%
Body Weight (%) ([9]; day 11): 100.8%
Body Weight (%) ([9]; day 12): 100.7%
Body Weight (%) ([9]; day 13): 102.5%
Body Weight (%) ([9]; day 14): 104.7%
content of IL-1β in cultured colonic tissue supernatants ([10]; 40 mg/kg i.p., day 7): substantially reduced
IL-1β ([10]; Figure 9h, individual replicates 1-3): 46.88 pg/mL and 42.98 pg/mL and 47.29 pg/mL
IC50 [11]: > 10 µM
IC50 [12]: > 10 µM
